SMILES strings stand for the structures.

Test [1] addresses T1, Integrin alpha-IIb/beta-3 (Homo sapiens, UniProt P05106+P08514). As to the kind of experiment: Antagonist activity at FITC-tagged […] integrin in human platelet rich plasma. In kind it is functional, cell-free.
The target in test [2] is T1, Integrin alpha-IIb/beta-3. Briefly: Antagonist activity at FITC-tagged alphaIIbbeta3 integrin in human platelet assessed as inhibition of FITC-fibrinogen binding on washed platelets.
A short description of test [3]: Antagonist activity at FITC-tagged […] integrin in human platelet rich plasma.

T1 sequence (P05106 27-788 limits assumed): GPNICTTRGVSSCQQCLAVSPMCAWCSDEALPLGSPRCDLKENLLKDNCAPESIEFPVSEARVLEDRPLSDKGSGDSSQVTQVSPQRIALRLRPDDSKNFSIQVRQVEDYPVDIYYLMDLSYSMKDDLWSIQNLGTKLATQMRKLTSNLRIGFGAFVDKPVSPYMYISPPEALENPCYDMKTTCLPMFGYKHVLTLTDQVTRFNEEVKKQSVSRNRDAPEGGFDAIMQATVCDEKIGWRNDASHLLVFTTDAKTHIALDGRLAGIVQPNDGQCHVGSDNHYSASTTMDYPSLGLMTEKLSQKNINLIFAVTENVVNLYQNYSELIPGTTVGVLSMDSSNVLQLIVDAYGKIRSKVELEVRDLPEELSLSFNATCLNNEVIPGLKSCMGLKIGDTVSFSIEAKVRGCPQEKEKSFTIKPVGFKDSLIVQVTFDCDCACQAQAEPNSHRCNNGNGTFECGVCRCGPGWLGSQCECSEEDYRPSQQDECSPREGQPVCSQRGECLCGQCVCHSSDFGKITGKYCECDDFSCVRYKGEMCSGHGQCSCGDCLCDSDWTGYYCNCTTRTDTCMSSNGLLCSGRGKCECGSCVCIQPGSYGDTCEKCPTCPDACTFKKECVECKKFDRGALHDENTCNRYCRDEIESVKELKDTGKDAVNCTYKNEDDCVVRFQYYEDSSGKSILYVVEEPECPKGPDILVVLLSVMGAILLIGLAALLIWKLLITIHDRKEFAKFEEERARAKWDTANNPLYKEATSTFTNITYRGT
T1 sequence (P08514 32-887 limits assumed): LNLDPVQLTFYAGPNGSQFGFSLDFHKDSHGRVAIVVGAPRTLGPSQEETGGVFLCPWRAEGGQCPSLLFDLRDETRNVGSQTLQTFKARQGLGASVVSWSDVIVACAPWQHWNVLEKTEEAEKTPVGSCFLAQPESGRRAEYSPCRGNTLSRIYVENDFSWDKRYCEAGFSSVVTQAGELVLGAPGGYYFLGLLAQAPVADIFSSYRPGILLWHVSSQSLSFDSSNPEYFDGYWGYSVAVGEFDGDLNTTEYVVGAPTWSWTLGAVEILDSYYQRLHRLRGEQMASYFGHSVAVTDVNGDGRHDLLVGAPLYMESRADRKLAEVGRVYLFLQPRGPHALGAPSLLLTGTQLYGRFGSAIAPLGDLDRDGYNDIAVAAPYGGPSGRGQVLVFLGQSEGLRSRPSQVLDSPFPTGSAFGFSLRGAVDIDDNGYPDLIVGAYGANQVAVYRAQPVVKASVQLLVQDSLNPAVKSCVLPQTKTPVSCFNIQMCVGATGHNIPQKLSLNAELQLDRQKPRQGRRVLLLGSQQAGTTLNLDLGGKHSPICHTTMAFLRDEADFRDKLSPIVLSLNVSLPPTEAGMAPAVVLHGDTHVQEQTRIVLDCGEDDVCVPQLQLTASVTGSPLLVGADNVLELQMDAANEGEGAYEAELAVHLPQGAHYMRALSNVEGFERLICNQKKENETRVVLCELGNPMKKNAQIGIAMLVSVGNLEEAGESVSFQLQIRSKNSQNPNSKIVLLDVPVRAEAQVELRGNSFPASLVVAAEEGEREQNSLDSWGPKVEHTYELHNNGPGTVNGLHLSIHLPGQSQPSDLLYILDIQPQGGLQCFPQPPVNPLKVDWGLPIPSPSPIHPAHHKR
T1 sequence (P08514 891-1039 limits assumed): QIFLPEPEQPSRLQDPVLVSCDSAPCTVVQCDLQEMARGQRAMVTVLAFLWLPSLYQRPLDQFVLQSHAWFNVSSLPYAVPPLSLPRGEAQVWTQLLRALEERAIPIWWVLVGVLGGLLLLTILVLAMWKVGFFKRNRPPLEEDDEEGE

What is called IC50 is the concentration at which inhibition is half-maximal. As for `COc1ccc(C(CC(=O)O)NC(=O)c2cccc(C(=O)Nc3ccc4c(c3)CNCC4)c2)cc1OC` (centres undefined), the IC50 was 11.6 nM in test [1] and 0.7 nM in test [2]. For `COc1ccc(C(CC(=O)O)NC(=O)c2cccc(C(=O)Nc3ccc4c(c3)CNCC4)c2)cc1` (centres undefined), the values for the IC50 in test [1] and in test [2] were 17 nM and 0.8 nM, respectively. For the compound `O=C(O)CC(NC(=O)CCC(=O)Nc1ccc2c(c1)CNC2)c1ccc2c(c1)OCO2` (centres undefined), the IC50 is 31 nM in test [1] and 0.22 nM in test [2]. On to `O=C(O)CC(NC(=O)CCC(=O)Nc1ccc2c(c1)CNC2)c1ccccc1` (centres undefined), for which, in test [3], inhibition was half-maximal at 860 nM (IC50). On to `COc1ccc(C(CC(=O)O)NC(=O)CCCC(=O)Nc2ccc3c(c2)CNCC3)cc1OC` (centres undefined), for which the IC50 stood at 127 nM in test [1] and 5 nM in test [2]. On the same counts, the results for `Cc1ccc(C(CC(=O)O)NC(=O)CCC(=O)Nc2ccc3c(c2)CNCC3)cc1` (centres undefined) are 96 nM and 0.9 nM. In the case of `O=C(O)CC(NC(=O)c1cccc(C(=O)Nc2ccc3c(c2)CNCC3)c1)c1ccccc1` (centres undefined), the IC50 is 25 nM in test [1] and 1 nM in test [2]. As to `O=C(O)CC(NC(=O)CCC(=O)Nc1ccc2c(c1)CNCC2)c1cccc2ccccc12` (centres undefined), the IC50 in test [1] worked out at 5200 nM.

For the compound `O=C(O)CCNC(=O)CCC(=O)Nc1ccc2c(c1)CNCC2`, the half-maximal inhibitory concentration (IC50) in test [1] amounted to 30 nM; in test [2] it was 1.21 nM. On the same counts, the results for `O=C(O)CC(NC(=O)CCC(=O)Nc1ccc2c(c1)CNCC2)c1ccc2c(c1)OCO2` (centres undefined) are 90 nM and 0.4 nM. As to `O=C(O)CC(NC(=O)CCC(=O)Nc1ccc2c(c1)CNCC2)c1cccc(F)c1` (centres undefined), the figures for the IC50 in test [1] and in test [2] were 10000 nM and 1100 nM, respectively. For `COc1ccc(C(CC(=O)O)NC(=O)CCC(=O)Nc2ccc3c(c2)CNCC3)cc1` (centres undefined) the same measures were 310 nM and 3.5 nM. Take `CC(C)Oc1ccc(C(CC(=O)O)NC(=O)CCC(=O)Nc2ccc3c(c2)CNC3)cc1` (centres undefined): the results for the IC50 in test [1] and in test [2] were 105 nM and 6 nM, respectively. With `O=C(O)CC(NC(=O)CCC(=O)Nc1ccc2c(c1)CNCC2)c1ccccc1F` (centres undefined), the IC50 in test [1] came out at 570 nM; in test [2], 5 nM. `O=C(O)CC(NC(=O)CCCC(=O)Nc1ccc2c(c1)CNCC2)c1ccc2c(c1)OCO2` (centres undefined): the values for the IC50 in test [1] and in test [2] were 53 nM and 0.78 nM, respectively. In the case of `COc1ccc(C(CC(=O)O)NC(=O)CCC(=O)Nc2ccc3c(c2)CNC3)cc1` (centres undefined), the figures for the IC50 in test [1] and in test [2] were 160 nM and 2.6 nM, respectively. `CC(C)Oc1ccc(C(CC(=O)O)NC(=O)CCC(=O)Nc2ccc3c(c2)CNCC3)cc1` (centres undefined) displayed an IC50 in test [1] of 87 nM. On to `COc1ccc(C(CC(=O)O)NC(=O)CCC(=O)Nc2ccc3c(c2)CNCC3)cc1OC` (centres undefined), for which the IC50 in test [1] was found to be 64 nM; in test [2], 0.63 nM. As to `COc1ccc(C(CC(=O)O)NC(=O)CCCC(=O)Nc2ccc3c(c2)CNCC3)cc1` (centres undefined), the IC50 in test [1] stood at 4200 nM; in test [2], 18 nM. Turning to `CCOc1ccc(C(CC(=O)O)NC(=O)CCC(=O)Nc2ccc3c(c2)CNCC3)cc1OC` (centres undefined), half-maximal inhibition in test [1] (IC50) was put at 510 nM. As for `COc1ccc(C(CC(=O)O)NC(=O)CCC(=O)Nc2ccc3c(c2)CNC3)cc1OC` (centres undefined), the IC50 in test [1] is 890 nM; in test [2] it was 9 nM. Take `O=C(O)CC(NC(=O)CCC(=O)Nc1ccc2c(c1)CNCC2)c1ccc(F)cc1` (centres undefined): the IC50 in test [1] worked out at 8.9 nM; in test [2], 1 nM. With `O=C(O)CC(NC(=O)CCC(=O)Nc1ccc2c(c1)CNCC2)c1ccccc1` (centres undefined), the 50% inhibitory concentration (IC50) in test [1] was 13 nM; in test [2], 1.01 nM. On to `O=C(O)CC(NC(=O)CCC(=O)Nc1ccc2c(c1)CNCC2)c1ccc(Cl)cc1` (centres undefined), for which the IC50 in test [1] was 2000 nM; in test [2], 65 nM.

Source of the values: ChEMBL document CHEMBL1208747, “Derivatives of tetrahydroisoquinoline: synthesis and initial evaluation of novel non-peptide antagonists of the alpha(IIb)beta(3)-integrin” (Bioorg Med Chem Lett, 2010).
